# Laboratory results reported in US8765433B2, “Alcohol dehydrogenases (ADH) useful for fermentive production of lower alkyl alcohols” (priority 2009, dated 2014).
# How the values were obtained:
# Assay type in all cases: biochemical
# [1] = molecular target: Achromobacter xylosoxidans SadB (SadB), SEQ ID NO: 26; assay: isobutyraldehyde reduction kinetics (A340, initial rates)
# Description: (§1) This example describes preparation of ADH-gene constructs for over-expression/purification and measurement of enzyme activities using a time-course assay. Horse-liver ADH (HLADH; A-6128) was purchased from Sigma. Achromobacter xylosoxidans SadB (SadB), Saccharomyces cerevisiae ADH6 (ScADH6) and ADH7 (ScADH7), Entamoeba histolytica ADH1 (EhADH1), Bos Taurus Aldehyde Reductase (BtARD), Beijerinckia indica subsp. Indica ATCC 9039 (BiADH), Clostridium beijerinckii ADH (CbADH), Rana perezi ADH8 (RpADH8), Rattus norvegicus ADH1 (RnADH1), Thermus sp. ATN1 ADH (TADH), Phenylobacterium zucineum HLK1 ADH (PzADH), Methylocella silvestris BL2 ADH (MsADH), Acinetobacter baumannii AYE ADH (AbADH), Geobacillus sp. WCH70 ADH (GbADH), Vanderwaltozyma polyspora DSM 70294 ADH (VpADH), Mucor circinelloides ADH (McADH), and Rhodococcus erythropolis PR4ADH (ReADH) were the candidates for which subclones were prepared for protein expression and purification.
# (§2) As a routine practice, the crude extracts and purified proteins were assayed for butanol oxidation activity, in order to ensure that the recombinant proteins were active throughout the purification process. […] Alcohol oxidation activities were carried out in 50 mM sodium phosphate buffer at pH 8.8 and aldehyde reduction reactions were assayed in 190 mM potassium phosphate buffer at pH 7.0. Depending on the nature of reaction being carried out, the enzyme and cofactor stocks were diluted in the reaction buffers at the respective pHs. Either buffer or cell extract prepared from the proprietary E. coli strain (with no ADH plasmid) was used as the negative control for assays with purified protein and cell-free extracts, respectively.
# (§3) Kinetic constants of the ADH enzymes were calculated and compared to identify those candidate ADH enzymes with the most desirable properties for the conversion of isobutyraldehyde to isobutanol in the last step of the engineered pathway for isobutanol production. The assays for determining the kinetic constants were carried out using initial rates from the assays described above. […] The concentration of a given enzyme was such that it was conducive for the measurement of initial velocities over a 1-min time course. For each enzyme, Michaelis-Menten plots were generated with a broad range of substrate concentrations. Rough estimates of KM were obtained, based on which the assays were redesigned so as to use substrate concentrations in the range 0.5 to 10 times the KM value, to be able to obtain the appropriate kinetic constants. […] Reactions with isobutanol substrate were performed at 30° C. in 50 mM Sodium phosphate buffer, pH 8.8, containing 7.5 mM NAD. The Enzyme kinetics module (Version 1.3) of SigmaPlot 11 (Systat Software, Inc.) was used to fit data to Michaelis-Menten equations and calculate the kinetic constants. The kcat/KM is derived from the individual numbers of kcat and KM and not an experimentally determined value.
# (§4) For those enzymes marked with an asterisk in Table 7, at least 3 assays were performed with separate preparations of the enzyme. All other numbers are values from either one assay or are averages from 2 assays performed with the same enzyme sample.
# [2] = molecular target: T1, Saccharomyces cerevisiae ADH6 (ScADH6), SEQ ID NO: 22 (Saccharomyces cerevisiae, UniProt Q04894); assay: as above; conditions: relative to SadB
# T1 sequence (Q04894 1-360): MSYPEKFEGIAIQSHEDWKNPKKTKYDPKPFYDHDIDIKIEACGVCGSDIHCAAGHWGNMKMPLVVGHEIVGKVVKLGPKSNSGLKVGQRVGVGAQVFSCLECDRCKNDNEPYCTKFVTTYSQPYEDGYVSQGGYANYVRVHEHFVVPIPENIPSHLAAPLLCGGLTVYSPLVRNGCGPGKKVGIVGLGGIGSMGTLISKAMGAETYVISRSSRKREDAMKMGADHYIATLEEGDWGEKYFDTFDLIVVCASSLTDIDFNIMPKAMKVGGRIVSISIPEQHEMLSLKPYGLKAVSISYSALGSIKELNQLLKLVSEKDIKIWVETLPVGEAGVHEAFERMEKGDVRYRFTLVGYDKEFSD
# Description: as §1, §2, §3, §4
# [3] = molecular target: T2, Saccharomyces cerevisiae ADH7 (ScADH7), SEQ ID NO: 23 (Saccharomyces cerevisiae, UniProt P25377); assay: as above
# T2 sequence (P25377 1-361): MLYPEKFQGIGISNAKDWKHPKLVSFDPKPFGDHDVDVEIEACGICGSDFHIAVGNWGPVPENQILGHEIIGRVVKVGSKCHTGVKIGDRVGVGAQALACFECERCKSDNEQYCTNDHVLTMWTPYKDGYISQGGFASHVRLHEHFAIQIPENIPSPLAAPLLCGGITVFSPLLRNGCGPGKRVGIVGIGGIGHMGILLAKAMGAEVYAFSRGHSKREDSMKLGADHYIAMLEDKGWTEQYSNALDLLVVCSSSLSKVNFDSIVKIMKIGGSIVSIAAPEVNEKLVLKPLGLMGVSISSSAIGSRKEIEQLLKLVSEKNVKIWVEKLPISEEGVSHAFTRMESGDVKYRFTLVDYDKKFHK
# Description: as §1, §2, §3, §4
# [4] = molecular target: T3, horse liver ADH (HLADH), SEQ ID NO: 21 (Equus caballus, UniProt P00327); assay: as above; conditions: relative to SadB
# T3 construct: purchased Sigma A-6128
# Description: as §1, §2, §3, §4
# [5] = molecular target: T4, Beijerinckia indica subsp. Indica ATCC 9039 ADH (BiADH), SEQ ID NO: 31 (Beijerinckia indica, UniProt B2IGW3)
# T4 sequence (B2IGW3 1-347): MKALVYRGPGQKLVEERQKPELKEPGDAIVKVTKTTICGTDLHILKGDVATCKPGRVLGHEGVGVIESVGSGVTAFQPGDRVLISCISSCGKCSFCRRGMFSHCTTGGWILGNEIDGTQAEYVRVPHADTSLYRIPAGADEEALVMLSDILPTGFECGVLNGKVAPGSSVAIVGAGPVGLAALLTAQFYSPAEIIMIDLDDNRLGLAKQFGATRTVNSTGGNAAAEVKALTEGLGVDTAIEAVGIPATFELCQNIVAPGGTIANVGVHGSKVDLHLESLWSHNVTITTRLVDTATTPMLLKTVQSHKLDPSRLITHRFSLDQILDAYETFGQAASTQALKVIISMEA
# Description: as §1, §2, §3, §4
# T3 sequence (P00327 whole entry): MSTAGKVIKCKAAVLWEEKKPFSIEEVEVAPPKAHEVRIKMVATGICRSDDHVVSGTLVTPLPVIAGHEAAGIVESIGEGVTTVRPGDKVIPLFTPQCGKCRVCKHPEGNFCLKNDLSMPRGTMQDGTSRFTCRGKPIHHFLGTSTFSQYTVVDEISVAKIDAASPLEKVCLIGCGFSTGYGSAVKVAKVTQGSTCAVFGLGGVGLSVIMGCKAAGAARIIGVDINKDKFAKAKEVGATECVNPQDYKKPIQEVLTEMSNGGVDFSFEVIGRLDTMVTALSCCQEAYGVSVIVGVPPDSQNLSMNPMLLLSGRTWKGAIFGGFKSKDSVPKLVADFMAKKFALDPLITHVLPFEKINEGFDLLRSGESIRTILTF
smiles,measurement,setting,value
"CC(C)CO [isobutanol, 2-methylpropan-1-ol]",KI as a percentage of the same parameter for SadB,[1]; reference (SadB itself),100%
same,KI as a percentage of the same parameter for SadB,[2],650%
same,Ki,[3]; read-out: KI (Isobutanol),88 mM
same,KI as a percentage of the same parameter for SadB,[3]; relative to SadB,49%
same,KI as a percentage of the same parameter for SadB,[4],1%
same,KI as a percentage of the same parameter for SadB,[5]; relative to SadB,20%
CC(C)C=O [isobutyraldehyde],Km,"[1]; 30° C., pH 7.0, 200 μM NADH, read-out: KM (Isobutanal)",1000 µM
same,kcat,"[1]; isobutyraldehyde reduction, 30° C., pH 7.0, 200 μM NADH",109 s⁻¹
same,KM as a percentage of the same parameter for SadB,[1]; reference (SadB itself),100%
same,kcat as a percentage of the same parameter for SadB,[1]; reference (SadB itself),100%
same,kcat/KM as a percentage of the same parameter for SadB,[1]; reference (SadB itself),100%
same,KM as a percentage of the same parameter for SadB,[2],60%
same,kcat as a percentage of the same parameter for SadB,[2],43%
same,kcat/KM as a percentage of the same parameter for SadB,[2],77%
same,KM as a percentage of the same parameter for SadB,[3]; relative to SadB,30%
same,kcat as a percentage of the same parameter for SadB,[3]; relative to SadB,33%
same,kcat/KM as a percentage of the same parameter for SadB,[3]; relative to SadB,114%
same,KM as a percentage of the same parameter for SadB,[4],10%
same,kcat as a percentage of the same parameter for SadB,[4],7%
same,kcat/KM as a percentage of the same parameter for SadB,[4],78%
same,"catalytic efficiency for isobutyraldehyde reduction, BiADH relative to SadB",[5]; compared with SadB,~12 times
same,KM as a percentage of the same parameter for SadB,[5]; relative to SadB,20%
same,kcat as a percentage of the same parameter for SadB,[5]; relative to SadB,260%
same,kcat/KM as a percentage of the same parameter for SadB,[5]; relative to SadB,1192%
